Source: patent publication US12630528B2, “Amino aryl derivative useful as diacylglycerol acyltransferase 2 inhibitor and use thereof” (LG CHEM, LTD., priority 2019, dated 2026)
pIC50: −log10 of the molar value.

Molecular target: T1, human DGAT2 (Homo sapiens, UniProt Q96PD7)
T1 construct: FLAG (DYKDDDDK); made in house; host or cells: Sf-21 insect cells (BacPAK baculovirus system); membrane fraction used
T1 sequence (Q96PD7 1-388): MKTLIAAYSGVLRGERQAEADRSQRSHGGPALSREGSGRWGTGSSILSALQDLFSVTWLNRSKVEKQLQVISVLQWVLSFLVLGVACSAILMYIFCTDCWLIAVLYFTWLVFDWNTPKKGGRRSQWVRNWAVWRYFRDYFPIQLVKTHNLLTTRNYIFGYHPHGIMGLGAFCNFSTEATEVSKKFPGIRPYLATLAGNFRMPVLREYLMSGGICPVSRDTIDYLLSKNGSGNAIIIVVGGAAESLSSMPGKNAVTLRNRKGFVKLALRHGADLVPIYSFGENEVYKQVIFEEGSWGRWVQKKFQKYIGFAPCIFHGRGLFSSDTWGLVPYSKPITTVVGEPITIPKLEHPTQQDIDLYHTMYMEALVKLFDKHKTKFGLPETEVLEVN
Experiment: DGAT2 enzyme activity inhibition, Phospholipid FlashPlate SPA
Assay type: biochemical
Settings: recombinant human DGAT2 membrane protein from Sf-21 cells; inhibition of [14C]-TG production; 37° C.
How it was run: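 Sf-21 membranes expressing recombinant human DGAT2 (2 μg) preincubated with compound (3 nM–10 μM, 1% DMSO) and 50 μM 1,2 sn-oleoyl glycerol, 20 min at 37 °C, then 1 μM [14C]oleoyl-CoA for 15 min. [14C]-TG counted by SPA; inhibition as % of untreated.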

| Molecule | pIC50 |
| --- | --- |
| CCOc1cccnc1O[C@@H]1CCCN(c2cncc(Nc3nccc(O[C@H]4CC[C@H](C(=O)O)CC4)n3)n2)C1 [Example 136, (1R,4r)-4-((2-((6-((R)-3-((3-ethoxypyridin-2-yl)oxy)piperidin-1-yl)pyrazin-2-yl)amino)pyrimidin-4-yl)oxy)cyclohexane-1-carboxylic Acid] | 6.52 |
| CCOc1ccccc1O[C@@H]1CCCN(c2cncc(Nc3nnnn3C)n2)C1 [Example 23, (R)-6-(3-(2-ethoxyphenoxy)piperidin-1-yl)-N-(1-methyl-1H-tetrazol-5-yl)pyrazin-2-amine] | 6.57 |
| CCOc1cccnc1O[C@@H]1CCCN(c2cncc(Nc3ccc(F)c(-c4cc(CC(C)(C)C(=O)O)ccc4F)n3)n2)C1 [Example 106, (R)-3-(3-(6-((6-(3-((3-ethoxypyridin-2-yl)oxy)piperidin-1-yl)pyrazin-2-yl)amino)-3-fluoropyridin-2-yl)-4-fluorophenyl)-2,2-dimethylpropanoic Acid] | 6.31 |
| CCOc1ccccc1O[C@@H]1CCCN(c2cncc(Nc3nc4ccc(CCC(=O)O)cc4o3)n2)C1 [Example 18, (R)-3-(2-((6-(3-(2-ethoxyphenoxy)piperidin-1-yl)pyrazin-2-yl)amino)benzo[d]oxazol-6-yl)propanoic Acid] | 5.96 |
| CCOc1ccccc1O[C@@H]1CCCN(c2cncc(Nc3nc4cc(/C=C/C(=O)O)ccc4o3)n2)C1 [Example 15, (R,E)-3-(2-((6-(3-(2-ethoxyphenoxy)piperidin-1-yl)pyrazin-2-yl)amino)benzo[d]oxazol-5-yl)acrylic Acid] | 5.14 |
| CCOc1ccccc1O[C@@H]1CCCN(c2cncc(Nc3nccc(N4CCC[C@@H](OCC(=O)O)C4)n3)n2)C1 [Example 132, 2-(((R)-1-(2-((6-((R)-3-(2-ethoxyphenoxy)piperidin-1-yl)pyrazin-2-yl)amino)pyrimidin-4-yl)piperidin-3-yl)oxy)acetic Acid] | 5.17 |
| (R)-2-(4-((6-(3-(2-ethoxyphenoxy)pyridin-1-yl)pyrazin-2-yl)amino)phenyl)-2-methylpropanoic Acid [Example 28] | < 5.00 |
| CCOc1ccccc1O[C@@H]1CCCN(c2cncc(Nc3nccc(-c4cccc(OC(C)(C)C(=O)O)c4)n3)n2)C1 [Example 176, (R)-2-(3-(2-((6-(3-(2-ethoxyphenoxy)piperidin-1-yl)pyrazin-2-yl)amino)pyrimidin-4-yl)phenoxy)-2-methylpropanoic Acid] | 6.23 |
| CCOc1cc(F)ccc1O[C@@H]1CCCN(c2cncc(Nc3cccc(-c4ccc(OC(C)(C)C(=O)O)cc4)n3)n2)C1 [Example 177, (R)-2-(4-(6-((6-(3-(2-ethoxy-4-fluorophenoxy)piperidin-1-yl)pyrazin-2-yl)amino)pyridin-2-yl)phenoxy)-2-methylpropanoic Acid] | 6.42 |
| CCOc1ccccc1O[C@@H]1CCCN(c2cncc(Nc3cccc(-c4cc(CC(C)(C)C(=O)O)ccc4F)n3)n2)C1 [Example 78, (R)-3-(3-(6-((6-(3-(2-ethoxyphenoxy)piperidin-1-yl)pyrazin-2-yl)amino)pyridin-2-yl)-4-fluorophenyl)-2,2-dimethylpropanoic Acid] | 6.54 |
| CCOc1ccccc1O[C@@H]1CCCN(c2cncc(Nc3nc4cc(CCC(=O)O)ccc4o3)n2)C1 [Example 16, (R)-3-(2-((6-(3-(2-ethoxyphenoxy)piperidin-1-yl)pyrazin-2-yl)amino)benzo[d]oxazol-5-yl)propanoic Acid] | < 5.00 |
| CCOc1ccccc1O[C@@H]1CCCN(c2cncc(Nc3cccc(Oc4ccc(C(=O)O)cc4)n3)n2)C1 [Example 89, (R)-4-((6-((6-(3-(2-ethoxyphenoxy)piperidin-1-yl)pyrazin-2-yl)amino)pyridin-2-yl)oxy)benzoic Acid] | 5.92 |
| CCOc1ccccc1O[C@@H]1CCCN(c2cncc(Nc3nccc(N4CCCC(C)(C(=O)O)C4)n3)n2)C1 (stereo partly drawn) [Example 122, 1-(2-((6-((R)-3-(2-ethoxyphenoxy)piperidin-1-yl)pyrazin-2-yl)amino)pyrimidin-4-yl)-3-methylpiperidine-3-carboxylic Acid] | 5.21 |
| CCOc1ccccc1O[C@@H]1CCCN(c2cncc(Nc3ccc(CC(=O)NCc4ccncc4)cc3)n2)C1 [Example 26, (R)-2-(4-((6-(3-(2-ethoxyphenoxy)piperidin-1-yl)pyrazin-2-yl)amino)phenyl)-N-(pyridin-4-ylmethyl)acetamide] | 5.17 |
| CCOc1ccccc1O[C@@H]1CCCN(c2cncc(Nc3cccc(N4CCC(CC(=O)O)CC4)n3)n2)C1 [Example 57, (R)-2-(1-(6-((6-(3-(2-ethoxyphenoxy)piperidin-1-yl)pyrazin-2-yl)amino)pyridin-2-yl)piperidin-4-yl)acetic Acid] | 6.48 |
| CCOc1ccccc1O[C@@H]1CCCN(c2cncc(Nc3cc(-c4cccc(C(C)(C)C(=O)O)c4)ccn3)n2)C1 [Example 42, (R)-2-(3-(2-((6-(3-(2-ethoxyphenoxy)piperidin-1-yl)pyrazin-2-yl)amino)pyridin-4-yl)phenyl)-2-methylpropanoic Acid] | 5.43 |
| CCOc1ccccc1O[C@@H]1CCCN(c2cncc(Nc3nccc(C4CC5CC4CC5C(=O)O)n3)n2)C1 (stereo partly drawn) [Example 124, 5-(2-((6-((R)-3-(2-ethoxyphenoxy)piperidin-1-yl)pyrazin-2-yl)amino)pyrimidin-4-yl)bicyclo[2.2.1]heptane-2-carboxylic Acid] | 6.47 |
| CCOc1ccccc1O[C@@H]1CCCN(c2cncc(Nc3ccc(C(=O)O)cn3)n2)C1 [Example 32, (R)-6-((6-(3-(2-ethoxyphenoxy)piperidin-1-yl)pyrazin-2-yl)amino)nicotinic Acid] | < 5.00 |
| CCOc1ccccc1O[C@@H]1CCCN(c2cncc(Nc3nc(-c4cccc(CC(C)(C)C(=O)O)c4)ccc3F)n2)C1 [Example 100, (R)-3-(3-(6-((6-(3-(2-ethoxyphenoxy)piperidin-1-yl)pyrazin-2-yl)amino)-5-fluoropyridin-2-yl)phenyl)-2,2-dimethylpropanoic Acid] | 6.37 |
| CCOc1ccccc1O[C@@H]1CCCN(c2cncc(Nc3nccc(N4CCC[C@@H](OC(C)(C)C(=O)O)C4)n3)n2)C1 [Example 133, 2-(((R)-1-(2-((6-((R)-3-(2-ethoxyphenoxy)piperidin-1-yl)pyrazin-2-yl)amino)pyrimidin-4-yl)piperidin-3-yl)oxy)-2-methylpropanoic Acid] | 5.44 |
| CCOc1ccccc1O[C@@H]1CCCN(c2cncc(Nc3nccc(N4CCC(C(C)(C)C(=O)O)CC4)n3)n2)C1 [Example 126, (R)-2-(1-(2-((6-(3-(2-ethoxyphenoxy)piperidin-1-yl)pyrazin-2-yl)amino)pyrimidin-4-yl)piperidin-4-yl)-2-methylpropanoic Acid] | 6.10 |
| CCOc1cccnc1O[C@@H]1CCCN(c2cncc(Nc3nccc(-c4ccc(C(C)(C)C(=O)O)cc4)n3)n2)C1 [Example 144, (R)-2-(4-(2-((6-(3-((3-ethoxypyridin-2-yl)oxy)piperidin-1-yl)pyrazin-2-yl)amino)pyrimidin-4-yl)phenyl)-2-methylpropanoic Acid] | 6.64 |
| CCOc1ccccc1O[C@@H]1CCCN(c2cncc(Nc3cccc(C(C)(C)C(=O)O)c3)n2)C1 [Example 29, (R)-2-(3-((6-(3-(2-ethoxyphenoxy)piperidin-1-yl)pyrazin-2-yl)amino)phenyl)-2-methylpropanoic Acid] | 5.19 |
| CCOc1ccccc1O[C@@H]1CCCN(c2nccc(Nc3cccc(-c4ccc(NCC(=O)O)cc4)n3)n2)C1 [Example 75, (R)-(4-(6-((2-(3-(2-ethoxyphenoxy)piperidin-1-yl)pyrimidin-4-yl)amino)pyridin-2-yl)phenyl)glycine] | 6.05 |
| CCOc1ccccc1O[C@@H]1CCCN(c2cncc(Nc3nccc(-c4ccc(NC(C)(C)C(=O)O)cc4)n3)n2)C1 [Example 161, (R)-2-((4-(2-((6-(3-(2-ethoxyphenoxy)piperidin-1-yl)pyrazin-2-yl)amino)pyrimidin-4-yl)phenyl)amino)-2-methylpropanoic Acid] | 6.72 |
| CCOc1ccccc1O[C@@H]1CCCN(c2cncc(Nc3nc4cc(CC(=O)O)ccc4o3)n2)C1 [Example 12, (R)-2-(2-((6-(3-(2-ethoxyphenoxy)piperidin-1-yl)pyrazin-2-yl)amino)benzo[d]oxazol-5-yl)acetic Acid] | 5.47 |
| CCOc1cccnc1O[C@@H]1CCCN(c2cncc(Nc3cccc(Oc4cccc(CC(=O)O)c4)n3)n2)C1 [Example 96, (R)-2-(3-((6-((6-(3-((3-ethoxypyridin-2-yl)oxy)piperidin-1-yl)pyrazin-2-yl)amino)pyridin-2-yl)oxy)phenyl)acetic Acid] | 7.06 |
| CCOc1ccccc1O[C@@H]1CCCN(c2cncc(Nc3cccc(N4CCCC(C(=O)O)C4)n3)n2)C1 (stereo partly drawn) [Example 54, 1-(6-((6-((R)-3-(2-ethoxyphenoxy)piperidin-1-yl)pyrazin-2-yl)amino)pyridin-2-yl)piperidine-3-carboxylic Acid] | 6.04 |
| CCOc1ccccc1O[C@@H]1CCCN(c2ccnc(Nc3nccc(-c4cccc(CC(C)(C)C(=O)O)c4)n3)n2)C1 [Example 150, (R)-3-(3-(2-((4-(3-(2-ethoxyphenoxy)piperidin-1-yl)pyrimidin-2-yl)amino)pyrimidin-4-yl)phenyl)-2,2-dimethylpropanoic Acid] | 5.92 |
